According to ChEMBL document CHEMBL1201862, “PubChem BioAssay data set” (2004):
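Step 1: Grow cells in 96-well plates. Step 2: Expose to compound for 48 hours at 5 concentrations. Step 3: Interpolate endpoints linearly; if unreached, use highest concentration. The concentration for 50% growth inhibition is given as GI50.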 Calls of active or inactive are those of the source. Cut-off read from the data, not from the text of the source: active = GI50 up to about 1.1 µM and inactive = higher.

Key:
Test in all cases: growth of human tumour cells (NCI), 48 h
786-0 = test system: 786-0
A498 = test system: A498
A549 = test system: A549
ACHN = test system: ACHN
BT-549 = test system: BT-549
CCRF-CEM = test system: CCRF-CEM
COLO 205 = test system: COLO 205
DU-145 = test system: DU-145
EKVX = test system: EKVX
HCC 2998 = test system: HCC 2998
HCT-116 = test system: HCT-116
HCT-15 = test system: HCT-15
HL-60 = test system: HL-60
HOP-62 = test system: HOP-62
HOP-92 = test system: HOP-92
HT-29 = test system: HT-29
Hs-578T = test system: Hs-578T
IGROV-1 = test system: IGROV-1
K562 = test system: K562
KM12 = test system: KM12
LOX IMVI = test system: LOX IMVI
M14 = test system: M14
MCF7 = test system: MCF7
MDA-MB-231 = test system: MDA-MB-231
MDA-N = test system: MDA-N
Malme-3M = test system: Malme-3M
NCI-H226 = test system: NCI-H226
NCI-H23 = test system: NCI-H23
NCI-H460 = test system: NCI-H460
NCI-H522 = test system: NCI-H522
NCI/ADR-RES = test system: NCI/ADR-RES
OVCAR-3 = test system: OVCAR-3
OVCAR-4 = test system: OVCAR-4
OVCAR-5 = test system: OVCAR-5
OVCAR-8 = test system: OVCAR-8
RPMI-8226 = test system: RPMI-8226
RXF 393 = test system: RXF 393
SF-268 = test system: SF-268
SF-295 = test system: SF-295
SK-MEL-28 = test system: SK-MEL-28
SK-MEL-2 = test system: SK-MEL-2
SK-MEL-5 = test system: SK-MEL-5
SK-OV-3 = test system: SK-OV-3
SN12C = test system: SN12C
SNB-19 = test system: SNB-19
SNB-75 = test system: SNB-75
SR = test system: SR
SW-620 = test system: SW-620
T47D = test system: T47D
TK-10 = test system: TK-10
U-251 = test system: U-251
UACC-257 = test system: UACC-257
UACC-62 = test system: UACC-62
UO-31 = test system: UO-31
CAKI-1 = test system: CAKI-1
MDA-MB-435 = test system: MDA-MB-435
MOLT-4 = test system: MOLT-4
PC-3 = test system: PC-3
SF-539 = test system: SF-539

SMILES: c1ccc(CCN2CCN=C2Cc2ccccc2)cc1
- GI50 (786-0): > 100 µM (inactive)
- GI50 (A498): > 100 µM (inactive)
- GI50 (A549): > 100 µM (inactive)
- GI50 (ACHN): > 100 µM (inactive)
- GI50 (BT-549): > 100 µM (inactive)
- GI50 (CCRF-CEM): 37.3 µM (inactive)
- GI50 (COLO 205): > 100 µM (inactive)
- GI50 (DU-145): > 100 µM (inactive)
- GI50 (EKVX): > 100 µM (inactive)
- GI50 (HCC 2998): 21.3 µM (inactive)
- GI50 (HCT-116): > 100 µM (inactive)
- GI50 (HCT-15): > 100 µM
- GI50 (HL-60): > 100 µM (inactive)
- GI50 (HOP-62): > 100 µM (inactive)
- GI50 (HOP-92): 28.6 µM (inactive)
- GI50 (HT-29): 67.1 µM (inactive)
- GI50 (Hs-578T): > 100 µM (inactive)
- GI50 (IGROV-1): > 100 µM (inactive)
- GI50 (K562): 29.2 µM (inactive)
- GI50 (KM12): > 100 µM (inactive)
- GI50 (LOX IMVI): > 100 µM (inactive)
- GI50 (M14): 31.1 µM (inactive)
- GI50 (MCF7): > 100 µM (inactive)
- GI50 (MDA-MB-231): > 100 µM (inactive)
- GI50 (MDA-N): > 100 µM (inactive)
- GI50 (Malme-3M): > 100 µM (inactive)
- GI50 (NCI-H226): > 100 µM (inactive)
- GI50 (NCI-H23): > 100 µM (inactive)
- GI50 (NCI-H460): > 100 µM (inactive)
- GI50 (NCI-H522): > 100 µM (inactive)
- GI50 (NCI/ADR-RES): 90.4 µM (inactive)
- GI50 (OVCAR-3): 71.3 µM (inactive)
- GI50 (OVCAR-4): > 100 µM (inactive)
- GI50 (OVCAR-5): > 100 µM (inactive)
- GI50 (OVCAR-8): > 100 µM (inactive)
- GI50 (RPMI-8226): 29 µM (inactive)
- GI50 (RXF 393): > 100 µM (inactive)
- GI50 (SF-268): > 100 µM (inactive)
- GI50 (SF-295): > 100 µM (inactive)
- GI50 (SK-MEL-28): > 100 µM (inactive)
- GI50 (SK-MEL-2): > 100 µM (inactive)
- GI50 (SK-MEL-5): > 100 µM (inactive)
- GI50 (SK-OV-3): > 100 µM (inactive)
- GI50 (SN12C): > 100 µM (inactive)
- GI50 (SNB-19): > 100 µM (inactive)
- GI50 (SNB-75): > 100 µM (inactive)
- GI50 (SR): > 100 µM (inactive)
- GI50 (SW-620): > 100 µM (inactive)
- GI50 (T47D): > 100 µM (inactive)
- GI50 (TK-10): > 100 µM (inactive)
- GI50 (U-251): > 100 µM (inactive)
- GI50 (UACC-257): > 100 µM (inactive)
- GI50 (UACC-62): > 100 µM (inactive)
- GI50 (UO-31): 99.1 µM (inactive)

SMILES: NC(=O)c1ncn2c1CNC(=O)C2
- GI50 (A498): > 100 µM (inactive)
- GI50 (A549): > 100 µM (inactive)
- GI50 (ACHN): > 100 µM (inactive)
- GI50 (BT-549): > 100 µM (inactive)
- GI50 (CAKI-1): > 100 µM (inactive)
- GI50 (CCRF-CEM): > 100 µM (inactive)
- GI50 (COLO 205): > 100 µM (inactive)
- GI50 (DU-145): > 100 µM (inactive)
- GI50 (EKVX): > 100 µM (inactive)
- GI50 (HCC 2998): > 100 µM (inactive)
- GI50 (HCT-15): > 100 µM
- GI50 (HL-60): > 100 µM (inactive)
- GI50 (HOP-62): > 100 µM (inactive)
- GI50 (HOP-92): > 100 µM (inactive)
- GI50 (HT-29): > 100 µM (inactive)
- GI50 (Hs-578T): > 100 µM (inactive)
- GI50 (IGROV-1): > 100 µM (inactive)
- GI50 (K562): > 100 µM (inactive)
- GI50 (KM12): > 100 µM (inactive)
- GI50 (M14): > 100 µM (inactive)
- GI50 (MCF7): > 100 µM (inactive)
- GI50 (MDA-MB-231): > 100 µM (inactive)
- GI50 (MDA-MB-435): > 100 µM (inactive)
- GI50 (MOLT-4): > 100 µM (inactive)
- GI50 (Malme-3M): > 100 µM (inactive)
- GI50 (NCI-H226): > 100 µM (inactive)
- GI50 (NCI-H23): > 100 µM (inactive)
- GI50 (NCI-H460): > 100 µM (inactive)
- GI50 (NCI-H522): > 100 µM (inactive)
- GI50 (NCI/ADR-RES): > 100 µM (inactive)
- GI50 (OVCAR-3): > 100 µM (inactive)
- GI50 (OVCAR-4): > 100 µM (inactive)
- GI50 (OVCAR-5): > 100 µM (inactive)
- GI50 (OVCAR-8): > 100 µM (inactive)
- GI50 (PC-3): > 100 µM (inactive)
- GI50 (RXF 393): > 100 µM (inactive)
- GI50 (SF-268): > 100 µM (inactive)
- GI50 (SF-295): > 100 µM (inactive)
- GI50 (SF-539): > 100 µM (inactive)
- GI50 (SK-MEL-28): > 100 µM (inactive)
- GI50 (SK-MEL-2): > 100 µM (inactive)
- GI50 (SK-MEL-5): > 100 µM (inactive)
- GI50 (SK-OV-3): > 100 µM (inactive)
- GI50 (SN12C): > 100 µM (inactive)
- GI50 (SNB-19): > 100 µM (inactive)
- GI50 (SNB-75): > 100 µM (inactive)
- GI50 (SR): > 100 µM (inactive)
- GI50 (SW-620): > 100 µM (inactive)
- GI50 (T47D): > 100 µM (inactive)
- GI50 (TK-10): > 100 µM (inactive)
- GI50 (U-251): > 100 µM (inactive)
- GI50 (UACC-257): > 100 µM (inactive)
- GI50 (UACC-62): > 100 µM (inactive)
- GI50 (UO-31): > 100 µM (inactive)
